This is an account of results in patent US6346402B1, “(S)-α-phenethylamine: pyruvate transaminase” (Kaneka Corporation, priority 1998, dated 2002).

“Also recorded” adds a separate entry of the source.

The subject of test [1] is (S)-α-phenethylamine:pyruvate transaminase. As to the kind of experiment: Substrate specificity for amino group donors (dabsylated alanine quantified by HPLC). In kind it is biochemical, Pseudomonas sp. KNK425. The note with it: for Relative Activity (%): substance as amino group donor, 22.5 mM, 22.5 mM pyruvic acid, pH 7.0, 30° C., 1 hour, (S)-phenethylamine = 100, Table 2. As to the method: The mixture was reacted at 30° C. for 1 hour, and thereafter immersed in boiling water for 5 minutes, to stop the reaction. The reaction mixture obtained after termination of reaction was diluted five times with 0.2M sodium carbonate buffer, and 0.2 mL of a 10 mM acetone solution of dabsyl chloride was added to 0.1 mL portion of the resulting dilution. The reaction mixture was reacted at 70° C. for 15 minutes, and after cooling, 0.1 mL of 1 N HCl was added. This reaction mixture was analyzed by high-performance liquid chromatography to quantify dabsylated alanine.
(§1) The assay conditions by high-performance liquid chromatography are as follows.
The results thereof, expressed in terms of the relative activity where an activity when using (S)-phenethylamine as an amino group donor is 100, are shown in Table 2.

Test [2] has the same test system. As to the kind of experiment: Substrate specificity for amino group receptors (acetophenone quantified by HPLC). It counts as biochemical, Pseudomonas sp. KNK425. As to the method: The mixture was reacted at 30° C. for 1 hour. The resulting reaction mixture was analyzed by high-performance liquid chromatography, to quantify acetophenone.
as §1

The test system is the same in test [3]. Briefly: Substrate specificity for amino group donors (dabsylated alanine quantified by HPLC). The following applies: substance as amino group donor; for Relative Activity (%): Table 1; for Relative Activity (%) of (S)-α-Phenethylamine:Pyruvate Transaminase [Present Invention]: Table 4. It counts as biochemical, Pseudomonas sp. KNK425.
Test [4] relates to 4-aminobutyrate:2-ketoglutarate transaminase. The following applies: substance as amino group donor; amino group receptor 2-ketoglutaric acid; Table 4; cited from earlier work.
Test [5] relates to ω-amino acid:pyruvate transaminase. The following applies: substance as amino group donor; amino group receptor pyruvic acid; Table 4; cited from earlier work.
Where [6] appears, read: ketone compound as amino group receptor, donor (S)-α-phenethylamine, same manner as Example 5, Table 5.
The mark [7] stands for this setting: substance as amino group receptor, 22.5 mM, donor 22.5 mM (S)-α-phenethylamine, pH 7.0, 30° C., 1 hour, pyruvic acid = 100, Table 3.
Setting [8] is: amino group receptor pyruvic acid.
The mark [9] stands for this setting: compound as amino group receptor, donor (S)-α-phenethylamine, same manner as Example 5, Table 6.
Setting [10] is: amino group receptor 2-ketoglutaric acid.

For the molecule `C[C@@H](N)c1ccccc1` [(R)-α-Phenethylamine], the “Relative Activity (%)” value in test [1] stood at 3%.

For `CC(C)N` [Isopropylamine], the “Relative Activity (%)” value in test [1] is recorded as 0%.

On to `CC(=O)c1ccc(Cl)cc1` [4′-Chloroacetophenone], for which the “Relative Activity (%)” value in test [2] (setting [6]) is 22%.

Turning to `CCC(C)N` (stereo not shown) [2-Butylamine], the “Relative Activity (%)” value in test [1] worked out at 1%.

As to `CCCC(C)N` (stereo not shown) [2-Pentylamine], the “Relative Activity (%)” value in test [1] came out at 4%.

Consider `CCC(=O)C(=O)O` [2-Ketobutyric acid], for which, in test [2] (setting [7]), the “Relative Activity (%)” value is recorded as 5.8%.

In the case of `NCC(=O)O` [Glycine], in test [3] (setting [8]), the “Relative Activity (%)” value is recorded as 0%. Further, the “Activity of the enzyme to the substance as amino group donor (in words)” value (“Activity … as amino group donor (in words)” for short) in test [1] is given as “does not act”.

As for `NC(CCC(=O)O)C(=O)O` (racemic) [DL-Glutamic Acid], the “Relative Activity (%)” value in test [3] (setting [8]) was determined as 0%. In addition, the “Activity … as amino group donor (in words)” value in test [1] is “does not act”.

Take `O=CCc1ccccc1` [Phenylacetaldehyde]: the “Relative Activity (%)” value in test [2] (setting [9]) is on record as 37%.

As to `COc1ccc(CCC(C)=O)cc1` [4-(4′-Methoxyphenyl)-2-butanone], in test [2] (setting [6]), the “Relative Activity (%)” value came out at 35%.

On to `NCCC(=O)O` [β-Alanine], for which the “Relative Activity (%) of 4-Aminobutyrate:2-ketoglutarate Transaminase [Derived from Pseudomonas F-126]” value in test [4] is 0%. Moreover, the “Relative Activity (%) of (S)-α-Phenethylamine:Pyruvate Transaminase [Present Invention]” value (shortened to “Relative Activity (%) … [Present Invention]”) in test [3] (setting [10]) and in test [3] (setting [8]) was 0% each time. In addition, the “Activity … as amino group donor (in words)” value in test [1] is recorded as “does not act; also recorded: not exhibiting activity”. Further, in test [5], the “Relative Activity (%) of ω-Amino acid:Pyruvate Transaminase [Derived from Pseudomonas F-126]” value was 100%.

For `N[C@@H](CC(=O)O)C(=O)O` [L-Aspartic Acid], the “Relative Activity (%)” value in test [3] (setting [8]) stood at 0%. Further, the “Activity … as amino group donor (in words)” value in test [1] is listed as “does not act”.

For `COc1ccc(CC(C)=O)cc1` [4′-Methoxyphenyl acetone], in test [2] (setting [6]), the “Relative Activity (%)” value stood at 12%.

Consider `Cl.N` [Ammonium Chloride], for which the “Relative Activity (%)” value in test [3] (setting [8]) was determined as 0%. For the same molecule, the “Activity … as amino group donor (in words)” value in test [1] is listed as “does not also act”.

Regarding `NCCCCC(N)C(=O)O` (racemic) [DL-Lysine], the “Relative Activity (%)” value in test [3] (setting [8]) was found to be 0%. In addition, the “Activity … as amino group donor (in words)” value in test [1] is recorded as “not exhibiting activity; also recorded: does not act”.

Take `CC(N)CCc1ccccc1` (stereo not shown) [1-Phenyl-3-aminobutane]: the “Relative Activity (%)” value in test [1] is 80%.

As to `CC(=O)C(=O)O` [Pyruvic acid], in test [2], the “Activity of the enzyme to the substance as amino group receptor (in words)” value (shortened to “Activity … as amino group receptor (in words)”) is reported as “high activity; also recorded: exhibiting activity; also recorded: exhibits activity”. Besides, the “Relative Activity (%)” value in test [2] (setting [9]) and in test [2] (setting [7]) was 100% throughout.

Turning to `CCCCCN` [Amylamine], the “Relative Activity (%)” value in test [1] came out at 5%.

`CC(=O)CC(=O)c1ccccc1` [Benzoyl acetone]: the “Relative Activity (%)” value in test [2] (setting [6]) was found to be 12%.

Turning to `CC(=O)CCc1ccccc1` [Benzyl acetone], the “Relative Activity (%)” value in test [2] (setting [6]) came out at 70%.

With `C[C@H](N)c1ccccc1` [(S)-α-Phenethylamine], in test [3] (setting [8]), the “Relative Activity (%)” value was determined as 100% and the “Relative Activity (%) … [Present Invention]” value came to 100%. Besides, in test [1], the “Activity … as amino group donor (in words)” value is listed as “especially high activity; also recorded: specifically high activity; also recorded: exhibiting activity; also recorded: exhibits high activity” and the “Relative Activity (%)” value turned out to be 100%.

For the molecule `O=CC(=O)O` [Glyoxylic acid], the “Activity … as amino group receptor (in words)” value in test [2] was “high activity; also recorded: exhibiting activity; also recorded: exhibits activity”. The “Relative Activity (%)” value in test [2] (setting [7]) is 100%.

For `CCCCN` [n-Butylamine], the “Relative Activity (%)” value in test [1] came out at 2%.

On to `NCCS(=O)(=O)O` [Taurine], for which the “Relative Activity (%) … [Present Invention]” value in test [3] (setting [8]) stood at 0%. In test [1], the “Activity … as amino group donor (in words)” value is “does not act; also recorded: not exhibiting activity”. For the same molecule, in test [5], the “Relative Activity (%) of ω-Amino acid:Pyruvate Transaminase [Derived from Pseudomonas F-126]” value is recorded as 132%.

Consider `CCCCCC(C)N` (stereo not shown) [2-Heptylamine], for which, in test [1], the “Relative Activity (%)” value was found to be 28%.

Take `CC(=O)Cc1cccc(C(F)(F)F)c1` [3′-Trifluoromethylphenyl acetone]: the “Relative Activity (%)” value in test [2] (setting [6]) amounted to 60%.

Turning to `CC(=O)c1ccccn1` [2-Acetylpyridine], in test [2] (setting [6]), the “Relative Activity (%)” value is 42%.

With `NCCCc1ccccc1` [3-Phenylpropylamine], the “Relative Activity (%)” value in test [1] is 1%.

With `NC1CCCCC1` [Cyclohexylamine], in test [1], the “Relative Activity (%)” value is listed as 1%.

Take `O=C(O)CCC(=O)C(=O)O` [2-Ketoglutaric acid]: in test [2], the “Activity … as amino group receptor (in words)” value is on record as “did not exhibit an activity; also recorded: does not act”. For the same molecule, in test [2] (setting [7]), the “Relative Activity (%)” value was found to be 0%.

As to `NCCCCN` [Putrescine], the “Relative Activity (%) of 4-Aminobutyrate:2-ketoglutarate Transaminase [Derived from Pseudomonas F-126]” value in test [4] was 8%. Besides, the “Relative Activity (%) … [Present Invention]” value in test [3] (setting [10]) and in test [3] (setting [8]) was 0% throughout. In test [1], the “Activity … as amino group donor (in words)” value is “does not act; also recorded: not exhibiting activity”. In addition, the “Relative Activity (%) of ω-Amino acid:Pyruvate Transaminase [Derived from Pseudomonas F-126]” value in test [5] is recorded as 18%.

Take `COc1cccc(C(C)=O)c1` [3′-Methoxyacetophenone]: the “Relative Activity (%)” value in test [2] (setting [6]) is 4%.

For the molecule `CC(=O)c1ccco1` [2-Acetylfuran], the “Relative Activity (%)” value in test [2] (setting [6]) is given as 3%.

For `COc1ccc(CC(C)N)cc1OC` (stereo not shown) [1-(3,4-Dimethoxyphenyl)-2-aminopropane], the “Relative Activity (%)” value in test [1] is 18%.

On to `CCCCCCC(C)N` (stereo not shown) [2-Octylamine], for which the “Relative Activity (%)” value in test [1] amounted to 46%.

With `CC(N)c1cccc(O)c1` (stereo not drawn) [3′-Hydroxy-α-phenethylamine], the “Relative Activity (%)” value in test [1] came to 52%.

`CC(=O)c1cccnc1` [3-Acetylpyridine]: the “Relative Activity (%)” value in test [2] (setting [6]) was 14%.

Take `CCC(=O)Cc1ccccc1` [1-Phenyl-2-butanone]: the “Relative Activity (%)” value in test [2] (setting [6]) was 5%.

Regarding `O=CCCc1ccccc1` [3-Phenylpropionaldehyde], in test [2] (setting [9]), the “Relative Activity (%)” value is 16%.

Turning to `NCCc1ccccc1` [β-Phenethylamine], the “Relative Activity (%)” value in test [1] was found to be 23%.

On to `CC(=O)c1cccc(O)c1` [3′-Hydroxyacetophenone], for which the “Relative Activity (%)” value in test [2] (setting [6]) was determined as 6%.

`CCCN` [n-Propylamine]: in test [1], the “Relative Activity (%)” value worked out at 0%.

Consider `COCC(C)=O` [Methoxypropanone], for which the “Relative Activity (%)” value in test [2] (setting [9]) is recorded as 5%.

As to `COc1ccc(CC(C)=O)cc1OC` [3′,4′-Dimethoxyphenyl acetone], the “Relative Activity (%)” value in test [2] (setting [6]) is on record as 38%.

Take `CC(=O)c1ccncc1` [4-Acetylpyridine]: the “Relative Activity (%)” value in test [2] (setting [6]) is 8%.

For `CCCC(=O)C(=O)O` [2-Keto-valeric acid], in test [2] (setting [7]), the “Relative Activity (%)” value is listed as 1.5%.

In the case of `CC(=O)COc1ccccc1` [Phenoxy-2-propanone], the “Relative Activity (%)” value in test [2] (setting [9]) is 46%.

On to `CC(=O)c1nccs1` [2-Acetylthiazole], for which the “Relative Activity (%)” value in test [2] (setting [6]) was 4%.

Consider `CC(=O)c1cnccn1` [Acetylpyrazine], for which, in test [2] (setting [6]), the “Relative Activity (%)” value was found to be 100%.

Consider `NCc1ccccc1` [Benzylamine], for which, in test [1], the “Relative Activity (%)” value is 13%.

As to `NCCCC(=O)O` [4-Aminobutyric acid], the “Relative Activity (%) of 4-Aminobutyrate:2-ketoglutarate Transaminase [Derived from Pseudomonas F-126]” value in test [4] is given as 100%. Further, the “Relative Activity (%) … [Present Invention]” value in test [3] (setting [10]) worked out at 0%. The “Activity … as amino group donor (in words)” value in test [1] is “does not act”.

`CC(=O)c1ccccc1O` [2′-Hydroxyacetophenone]: the “Relative Activity (%)” value in test [2] (setting [6]) is reported as 24%.
